# Experimental data reported in patent US7135615B2, “Chromosome doubling method” (The Curators of the University of Missouri, priority 2001, dated 2006).
# “And” between values parts separate entries of the source, which are not always exact repeats. Equal entries are not always repeated. Marks after values point to notes of the source that are not given here.
# Tests used:
# [1] = test system: maize Oh43 haploid seedlings; experiment: nitrous oxide gas treatment at 3–8 leaf stages, Oh43 haploids (Example 3); details: for Ear (open pollinated): No. of fertile sectors /ear / Ear (open pollinated): No. of kernels produced /ear / Ear (open pollinated): Plants with fertile sectors % / No. of tassel branch Average / Plant height (cm) Average / Tassel: No. of fertile anthers extruded/tassel / Tassel: No. of fertile sectors/tassel / Tassel: Plants with fertile sectors % / Ear (open pollinated): Plants with fertile sectors No. / Tassel: Plants with fertile sectors No. / No. of plants Survived: 600 kPa, 2 days
# Source text: Leaf stages were defined as follows, At the 3 leaf stage, there are three elongated leaves and the tip of the fourth leaf appears at the center of the leaf whorl. This stage is defined as V2 according to Ritchie et al. (1997). At the 8 leaf stage, there are 8 elongated leaves and the tip of the 9th and 10th leaves appear at the center of the leaf whorl (late V5 stage). At the 6 leaf stage, six elongated leaves are observable, and the tip of seventh leaf appears at the leaf whorl (late V4 or early V5 stage). Nine to sixteen haploid plants were treated at each stage using a large air tight iron chamber (FIG. 3). […] Moistened calcium hydroxide (50 g) wrapped in a paper towel was included to absorb carbon dioxide that is produced by the seedlings, as carbon dioxide at high concentration will injure the seedlings during the treatment. The soil of the pots was dried prior to treatment to prevent root injuries. […] The gas was introduced slowly into the chamber over a 10 minutes time frame.
# After the treatment, seedlings were transplanted into larger pots, and grown in a greenhouse. A relatively cool temperature (below 25° C.) was maintained to permit the appropriate development of doubled sectors. At flowering, the ears were cross pollinated by an appropriate pollen source to reveal all the fertile sectors on the ears. On the treated plants, plant height (cm), tassel size (cm), number of tassel branches, ear length (cm), the number of fertile sectors on a tassel and an ear, the number of anthers on a tassel, and the number of kernels on an ear were recorded.
# Analyses of variance and Duncan's Multiple Range Tests were performed to determine the effects of treatments on the plant height (cm), tassel size (cm), and ear length (cm). Chi square tests were used to determine the effects of treatments upon the proportion of plants that developed fertile tassel and ear sectors. The ratios of untreated plants with fertile sectors were used to estimate the significance of the ratio of treated plants with fertile sectors.
# Nonparametric tests were performed to compare the distributions. The primary test was the Kruskal-Wallis test. In the initial tests, the null hypothesis considered was that the distributions would be the same for each treatment and control. If the null hypothesis was rejected (P<0.05), then pair wise comparisons of each treatment to the control using Dunn's method were conducted. The tassel branch number was low incidence count data and was analyzed using the same nonparametric tests mentioned above.
# [2] = test system: maize haploid seedlings of origin B55; experiment: doubled haploid production trial, B55 haploids (Example 4); details: for Ear: Plants with kernels after selfing % / Tassel: No. of fertile anthers extruded/tassel / Tassel: No. of fertile sectors/tassel / Tassel: Plants with fertile sectors % / Ear: Plants with kernels after selfing No. / Tassel: Plants with fertile sectors No. / No. of plants Survived / Ear: No. of kernels produced/ear: B55 haploids, 600 kPa, 2 days; for Ear: No. of kernels produced/ear: selfed
# Experimental: (§1) Ten to nineteen plants were treated for each plot. Self pollinations were conducted on these treated haploids if there were fertile sectors on the tassel. Pollen grains were collected carefully on a sheet of paper and transferred to the silks repeatedly. Silks and husks were cut back prior to pollination in order to permit maximum seed set. The numbers of fertile tassel and ear sectors, as well as the numbers of anthers and selfed kernels were recorded. Statistical analyses were as described above.
# [3] = test system: maize haploid seedlings of origin B55 × A619; experiment: doubled haploid production trial, B55 × A619 haploids (Example 4); details: 600 kPa, 2 days; for Ear: No. of kernels produced/ear: selfed
# Experimental: as §1
smiles,measurement,setting,value
"[N-]=[N+]=O [nitrous oxide gas, nitrous oxide]",Ear (open pollinated): No. of fertile sectors /ear,[1]; 3 leaf stage,0.7 /ear
same,Ear (open pollinated): No. of kernels produced /ear,[1]; 3 leaf stage,0.5 /ear
same,Ear (open pollinated): Plants with fertile sectors %,[1]; 3 leaf stage,33%
same,No. of tassel branch Average,[1]; 3 leaf stage,3.8**
same,Plant height (cm) Average,[1]; 3 leaf stage,106 a cm
same,Tassel: No. of fertile anthers extruded/tassel,[1]; 3 leaf stage,0.0 /tassel
same,Tassel: No. of fertile sectors/tassel,[1]; 3 leaf stage,0.0 /tassel
same,Tassel: Plants with fertile sectors %,[1]; 3 leaf stage,0%
same,Ear (open pollinated): Plants with fertile sectors No.,"[1]; 3 leaf stage, 12 examined",4
same,Tassel: Plants with fertile sectors No.,"[1]; 3 leaf stage, 12 examined",0
same,No. of plants Survived,"[1]; 3 leaf stage, 12 treated",12
same,effect for increasing the fertile sectors on either tassels and ears,[1]; 3–4 leaf stage,no effect
same,"number of anthers /tassel, span over treatments",[1]; 3–8 leaf stage treatments,0–19.7 /tassel
same,"number of kernels on the ears, span over treatments",[1]; 3–8 leaf stage treatments,0.5–18.6
same,Ear (open pollinated): No. of fertile sectors /ear,[1]; 4 leaf stage,0.8 /ear
same,Ear (open pollinated): No. of kernels produced /ear,[1]; 4 leaf stage,0.8 /ear
same,Ear (open pollinated): Plants with fertile sectors %,[1]; 4 leaf stage,46%
same,No. of tassel branch Average,[1]; 4 leaf stage,4.4**
same,Plant height (cm) Average,[1]; 4 leaf stage,121 b cm
same,Tassel: No. of fertile anthers extruded/tassel,[1]; 4 leaf stage,1.5 /tassel
same,Tassel: No. of fertile sectors/tassel,[1]; 4 leaf stage,0.3 /tassel
same,Tassel: Plants with fertile sectors %,[1]; 4 leaf stage,23%
same,Ear (open pollinated): Plants with fertile sectors No.,"[1]; 4 leaf stage, 13 examined",6
same,Tassel: Plants with fertile sectors No.,"[1]; 4 leaf stage, 13 examined",3
same,No. of plants Survived,"[1]; 4 leaf stage, 13 treated",13
same,Ear (open pollinated): No. of fertile sectors /ear,[1]; 5 leaf stage,1.4 /ear
same,Ear (open pollinated): No. of kernels produced /ear,[1]; 5 leaf stage,1.8 /ear
same,Ear (open pollinated): Plants with fertile sectors %,[1]; 5 leaf stage,46%
same,No. of tassel branch Average,[1]; 5 leaf stage,2.9**
same,Plant height (cm) Average,[1]; 5 leaf stage,124 b cm
same,Tassel: No. of fertile anthers extruded/tassel,[1]; 5 leaf stage,19.7 /tassel
same,Tassel: No. of fertile sectors/tassel,[1]; 5 leaf stage,1.2* /tassel
same,Tassel: Plants with fertile sectors %,[1]; 5 leaf stage,54** %
same,Ear (open pollinated): Plants with fertile sectors No.,"[1]; 5 leaf stage, 13 examined",6
same,Tassel: Plants with fertile sectors No.,"[1]; 5 leaf stage, 13 examined",7
same,Ear (open pollinated): No. of fertile sectors /ear,[1]; 6 leaf stage,1.5 /ear
same,Ear (open pollinated): No. of kernels produced /ear,[1]; 6 leaf stage,18.6 /ear
same,Ear (open pollinated): Plants with fertile sectors %,[1]; 6 leaf stage,67%
same,No. of tassel branch Average,[1]; 6 leaf stage,5.7
same,Plant height (cm) Average,[1]; 6 leaf stage,119 b cm
same,Tassel: No. of fertile anthers extruded/tassel,[1]; 6 leaf stage,5.3 /tassel
same,Tassel: No. of fertile sectors/tassel,[1]; 6 leaf stage,1.8** /tassel
same,Tassel: Plants with fertile sectors %,[1]; 6 leaf stage,100%
same,Ear (open pollinated): Plants with fertile sectors No.,"[1]; 6 leaf stage, 12 examined",8
same,Tassel: Plants with fertile sectors No.,"[1]; 6 leaf stage, 12 examined",12
same,No. of plants Survived,"[1]; 6 leaf stage, 16 treated",12
same,Ear (open pollinated): No. of fertile sectors /ear,[1]; 7 leaf stage,0.8 /ear
same,Ear (open pollinated): No. of kernels produced /ear,[1]; 7 leaf stage,1.1 /ear
same,Ear (open pollinated): Plants with fertile sectors %,[1]; 7 leaf stage,46%
same,No. of tassel branch Average,[1]; 7 leaf stage,5.0*
same,Plant height (cm) Average,[1]; 7 leaf stage,122 b cm
same,Tassel: No. of fertile anthers extruded/tassel,[1]; 7 leaf stage,5.8** /tassel
same,Tassel: No. of fertile sectors/tassel,[1]; 7 leaf stage,2.1** /tassel
same,Tassel: Plants with fertile sectors %,[1]; 7 leaf stage,69** %
same,Ear (open pollinated): Plants with fertile sectors No.,"[1]; 7 leaf stage, 13 examined",6
same,Tassel: Plants with fertile sectors No.,"[1]; 7 leaf stage, 13 examined",9
same,No. of plants Survived,"[1]; 7 leaf stage, 16 treated",13
same,Ear (open pollinated): No. of fertile sectors /ear,[1]; 8 leaf stage,1.0 /ear
same,Ear (open pollinated): No. of kernels produced /ear,[1]; 8 leaf stage,4.1 /ear
same,Ear (open pollinated): Plants with fertile sectors %,[1]; 8 leaf stage,46%
same,No. of tassel branch Average,[1]; 8 leaf stage,5.3*
same,Plant height (cm) Average,[1]; 8 leaf stage,122 b cm
same,Tassel: No. of fertile anthers extruded/tassel,[1]; 8 leaf stage,3.1** /tassel
same,Tassel: No. of fertile sectors/tassel,[1]; 8 leaf stage,1.4** /tassel
same,Tassel: Plants with fertile sectors %,[1]; 8 leaf stage,69** %
same,Ear (open pollinated): Plants with fertile sectors No.,"[1]; 8 leaf stage, 13 examined",6
same,Tassel: Plants with fertile sectors No.,"[1]; 8 leaf stage, 13 examined",9
same,No. of plants Survived,"[1]; 8 leaf stage, 16 treated",13
same,successful self pollination rate,[2]; B55 haploids after nitrous oxide treatment,90–100%
same,Ear: Plants with kernels after selfing %,[2]; 5 leaf stage,60** %
same,Tassel: No. of fertile anthers extruded/tassel,[2]; 5 leaf stage,161.3** /tassel
same,Tassel: No. of fertile sectors/tassel,[2]; 5 leaf stage,1.6 /tassel
same,Tassel: Plants with fertile sectors %,[2]; 5 leaf stage,90** %
same,Ear: Plants with kernels after selfing No.,"[2]; 5 leaf stage, 10 survived",6
same,Tassel: Plants with fertile sectors No.,"[2]; 5 leaf stage, 10 survived",9
same,No. of plants Survived,"[2]; 5 leaf stage, 10 treated",10
same,Ear: No. of kernels produced/ear,[2]; 5 leaf stage,31.5* /ear
same,Ear: Plants with kernels after selfing %,[2]; 6 leaf stage,90%
same,Tassel: No. of fertile anthers extruded/tassel,[2]; 6 leaf stage,380 /tassel and 380.1** /tassel
same,Tassel: No. of fertile sectors/tassel,[2]; 6 leaf stage,4.5** /tassel
same,Tassel: Plants with fertile sectors %,[2]; 6 leaf stage,100** %
same,Ear: Plants with kernels after selfing No.,"[2]; 6 leaf stage, 10 survived",9
same,Tassel: Plants with fertile sectors No.,"[2]; 6 leaf stage, 10 survived",10
same,No. of plants Survived,"[2]; 6 leaf stage, 10 treated",10
same,Ear: No. of kernels produced/ear,[2]; 6 leaf stage,61.6 /ear
same,Ear: Plants with kernels after selfing %,[2]; 7 leaf stage,78** %
same,Tassel: No. of fertile anthers extruded/tassel,[2]; 7 leaf stage,401.3** /tassel
same,Tassel: No. of fertile sectors/tassel,[2]; 7 leaf stage,10.6** /tassel
same,Tassel: Plants with fertile sectors %,[2]; 7 leaf stage,100** %
same,Ear: Plants with kernels after selfing No.,"[2]; 7 leaf stage, 9 survived",7
same,Tassel: Plants with fertile sectors No.,"[2]; 7 leaf stage, 9 survived",9
same,No. of plants Survived,"[2]; 7 leaf stage, 9 treated",9
same,Ear: No. of kernels produced/ear,[2]; 7 leaf stage,65.6** /ear
same,Ear: Plants with kernels after selfing %,[3]; 5 leaf stage,33%
same,Tassel: No. of fertile anthers extruded/tassel,[3]; 5 leaf stage,25.7** /tassel
same,Tassel: No. of fertile sectors/tassel,[3]; 5 leaf stage,1.1* /tassel
same,Tassel: Plants with fertile sectors %,[3]; 5 leaf stage,67** %
same,Ear: Plants with kernels after selfing No.,"[3]; 5 leaf stage, 15 survived",5
same,Tassel: Plants with fertile sectors No.,"[3]; 5 leaf stage, 15 survived",10
same,No. of plants Survived,"[3]; 5 leaf stage, 15 treated",15
same,Ear: No. of kernels produced/ear,[3]; 5 leaf stage,1.3 /ear
same,Ear: Plants with kernels after selfing %,[3]; 6 leaf stage,50** %
same,Tassel: No. of fertile anthers extruded/tassel,[3]; 6 leaf stage,109.9** /tassel
same,Tassel: No. of fertile sectors/tassel,[3]; 6 leaf stage,3.1** /tassel
same,Tassel: Plants with fertile sectors %,[3]; 6 leaf stage,71** %
same,Ear: Plants with kernels after selfing No.,"[3]; 6 leaf stage, 14 survived",7
same,Tassel: Plants with fertile sectors No.,"[3]; 6 leaf stage, 14 survived",10
same,No. of plants Survived,"[3]; 6 leaf stage, 14 treated",14
same,Ear: No. of kernels produced/ear,[3]; 6 leaf stage,9.5* /ear
same,Ear: Plants with kernels after selfing %,[3]; 7 leaf stage,62** %
same,Tassel: No. of fertile anthers extruded/tassel,[3]; 7 leaf stage,60.2** /tassel
same,Tassel: No. of fertile sectors/tassel,[3]; 7 leaf stage,3.9** /tassel
same,Tassel: Plants with fertile sectors %,[3]; 7 leaf stage,92** %
same,Ear: Plants with kernels after selfing No.,"[3]; 7 leaf stage, 13 survived",8
same,Tassel: Plants with fertile sectors No.,"[3]; 7 leaf stage, 13 survived",12
same,No. of plants Survived,"[3]; 7 leaf stage, 13 treated",13
same,Ear: No. of kernels produced/ear,[3]; 7 leaf stage,15.7** /ear
